From publication PMC5218480 (PLoS ONE, 2017)

Tested on: MV-4-11 cells
Assay: Gene expression microarray analysis (Affymetrix PrimeView) and GSEA
Assay type: cell-based, human
Parameters: RFU PODN (11730768_x_at) / Fold change /veh PODN (11730768_x_at) / RFU LINC00158 (11744669_a_at) / Fold change /veh LINC00158 (11744669_a_at) / RFU DUSP10 (11751237_a_at) / Fold change /veh DUSP10 (11751237_a_at) / RFU ID3 (11757404_x_at) / Fold change /veh ID3 (11757404_x_at) / RFU PLEKHG5 (11737974_s_at) / Fold change /veh PLEKHG5 (11737974_s_at) / RFU LRRC4B (11730491_at) / Fold change /veh LRRC4B (11730491_at) / RFU GIMAP4 (11747438_a_at) / Fold change /veh GIMAP4 (11747438_a_at) / RFU KRT8 (11758183_x_at) / Fold change /veh KRT8 (11758183_x_at) / RFU CNN1 (11734310_a_at) / Fold change /veh CNN1 (11734310_a_at) / RFU VPS37D (11726825_at) / Fold change /veh VPS37D (11726825_at) / RFU C10orf10 (11716522_x_at) / Fold change /veh C10orf10 (11716522_x_at) / RFU KIR2DL2 /// KIR2DL4 /// KIR2DL5A /// KIR2DL5B /// KIR2DS1 /// KIR2DS2 /// KIR2DS3 /// KIR2DS4 /// KIR3DL3 /// KIR3DL3 /// KIR3DS1 (11738374_at) / Fold change /veh KIR2DL2 /// KIR2DL4 /// KIR2DL5A /// KIR2DL5B /// KIR2DS1 /// KIR2DS2 /// KIR2DS3 /// KIR2DS4 /// KIR3DL3 /// KIR3DL3 /// KIR3DS1 (11738374_at) / RFU C1QL1 (11718748_at) / Fold change /veh C1QL1 (11718748_at) / RFU TMPRSS4 (11747572_a_at) / Fold change /veh TMPRSS4 (11747572_a_at) / RFU HAMP (11756126_x_at) / Fold change /veh HAMP (11756126_x_at) / RFU RNFT2 (11725882_a_at) / Fold change /veh RNFT2 (11725882_a_at) / RFU NR4A2 (11747474_a_at) / Fold change /veh NR4A2 (11747474_a_at) / RFU ABCC12 (11746883_a_at) / Fold change /veh ABCC12 (11746883_a_at) / RFU TMEM136 (11760407_x_at) / Fold change /veh TMEM136 (11760407_x_at) / RFU CLDN22 /// WWC2 (11732394_at) / Fold change /veh CLDN22 /// WWC2 (11732394_at) / RFU HLA-DPB1 (11760878_x_at) / Fold change /veh HLA-DPB1 (11760878_x_at) / RFU SPINT1 (11716480_a_at) / Fold change /veh SPINT1 (11716480_a_at) / RFU GAP43 (11754022_s_at) / Fold change /veh GAP43 (11754022_s_at) / RFU A4GNT (11735810_at) / Fold change /veh A4GNT (11735810_at) / RFU PRB3 (11715151_x_at) / Fold change /veh PRB3 (11715151_x_at) / RFU TUBB4B (11761932_at) / Fold change /veh TUBB4B (11761932_at) / RFU CAPN14 (11732068_a_at) / Fold change /veh CAPN14 (11732068_a_at) / RFU TMCC2 (11721928_a_at) / Fold change /veh TMCC2 (11721928_a_at) / RFU IRGQ (11745062_a_at) / Fold change /veh IRGQ (11745062_a_at) / RFU FAM174B (11720279_a_at) / Fold change /veh FAM174B (11720279_a_at) / RFU TMPRSS4 (11748680_a_at) / Fold change /veh TMPRSS4 (11748680_a_at) / RFU FAM212B (11763350_a_at) / Fold change /veh FAM212B (11763350_a_at) / RFU PLEKHG5 (11743358_a_at) / Fold change /veh PLEKHG5 (11743358_a_at) / RFU ZSCAN30 (11745921_a_at) / Fold change /veh ZSCAN30 (11745921_a_at) / RFU CMKLR1 (11741424_a_at) / Fold change /veh CMKLR1 (11741424_a_at) / RFU LOC101060620 /// MAPK8IP1 (11723275_at) / Fold change /veh LOC101060620 /// MAPK8IP1 (11723275_at) / RFU SPTSSB (11747773_x_at) / Fold change /veh SPTSSB (11747773_x_at) / RFU PRSS12 (11739890_at) / Fold change /veh PRSS12 (11739890_at) / RFU BIN1 (11741810_x_at) / Fold change /veh BIN1 (11741810_x_at) / RFU WNT11 (11732464_a_at) / Fold change /veh WNT11 (11732464_a_at) / RFU C10orf10 (11716521_a_at) / Fold change /veh C10orf10 (11716521_a_at) / RFU C5orf56 (11738089_at) / Fold change /veh C5orf56 (11738089_at) / RFU CYB561 (11721691_x_at) / Fold change /veh CYB561 (11721691_x_at) / RFU ANKRD19P (11752326_a_at) / Fold change /veh ANKRD19P (11752326_a_at) / RFU OR2T12 /// OR2T33 /// OR2T8 (11738714_s_at) / Fold change /veh OR2T12 /// OR2T33 /// OR2T8 (11738714_s_at) / RFU VCAN (11748164_a_at) / Fold change /veh VCAN (11748164_a_at) / RFU JSRP1 (11732532_at) / Fold change /veh JSRP1 (11732532_at) / RFU KRTAP10-11 (11738290_x_at) / Fold change /veh KRTAP10-11 (11738290_x_at) / RFU MYO3A (11730013_a_at) / Fold change /veh MYO3A (11730013_a_at) / RFU EBF3 (11725865_a_at) / Fold change /veh EBF3 (11725865_a_at) / RFU CAMK2N1 (11719241_x_at) / Fold change /veh CAMK2N1 (11719241_x_at) / RFU C5orf56 (11738088_a_at) / Fold change /veh C5orf56 (11738088_a_at) / RFU OLFML3 (11715873_a_at) / Fold change /veh OLFML3 (11715873_a_at) / RFU LOC100653217 /// NTM (11731650_a_at) / Fold change /veh LOC100653217 /// NTM (11731650_a_at) / RFU MAPK11 (11762145_a_at) / Fold change /veh MAPK11 (11762145_a_at) / RFU FIZ1 (11724087_x_at) / Fold change /veh FIZ1 (11724087_x_at) / RFU OASL (11726364_x_at) / Fold change /veh OASL (11726364_x_at) / RFU SOX15 (11748057_x_at) / Fold change /veh SOX15 (11748057_x_at) / RFU CD79A (11719716_a_at) / Fold change /veh CD79A (11719716_a_at) / RFU HIST1H1D (11736915_at) / Fold change /veh HIST1H1D (11736915_at) / RFU CASKIN2 (11723855_a_at) / Fold change /veh CASKIN2 (11723855_a_at) / RFU LOC730098 (11760151_x_at) / Fold change /veh LOC730098 (11760151_x_at) / RFU OR4N2 (11742367_at) / Fold change /veh OR4N2 (11742367_at) / RFU PRRT2 (11749266_a_at) / Fold change /veh PRRT2 (11749266_a_at) / RFU SNX32 (11753110_a_at) / Fold change /veh SNX32 (11753110_a_at) / RFU CDHR5 (11726645_a_at) / Fold change /veh CDHR5 (11726645_a_at) / RFU RCAN1 (11760418_a_at) / Fold change /veh RCAN1 (11760418_a_at) / RFU FAM167A (11723789_a_at) / Fold change /veh FAM167A (11723789_a_at) / RFU FAM26E (11764081_at) / Fold change /veh FAM26E (11764081_at) / RFU ISYNA1 (11749810_s_at) / Fold change /veh ISYNA1 (11749810_s_at) / RFU ACY1 (11761880_at) / Fold change /veh ACY1 (11761880_at) / RFU 11764098_at / Fold change /veh 11764098_at / RFU SAMD14 (11745864_x_at) / Fold change /veh SAMD14 (11745864_x_at) / RFU NPB (11741838_a_at) / Fold change /veh NPB (11741838_a_at) / RFU TMPRSS6 (11731388_a_at) / Fold change /veh TMPRSS6 (11731388_a_at) / RFU KRTAP10-2 (11738614_at) / Fold change /veh KRTAP10-2 (11738614_at) / RFU ARHGAP8 /// PRR5-ARHGAP8 (11727945_x_at) / Fold change /veh ARHGAP8 /// PRR5-ARHGAP8 (11727945_x_at) / RFU KRTAP5-7 /// NADSYN1 (11734609_at) / Fold change /veh KRTAP5-7 /// NADSYN1 (11734609_at) / RFU RASL12 (11751679_a_at) / Fold change /veh RASL12 (11751679_a_at) / RFU CDKN2B (11736163_a_at) / Fold change /veh CDKN2B (11736163_a_at) / RFU PRF1 (11729649_at) / Fold change /veh PRF1 (11729649_at) / RFU, ZNF638 /// ZNF638-IT1 / Fold change vs veh, ZNF638 /// ZNF638-IT1 / RFU, PANK3 / Fold change vs veh, PANK3 / RFU, SH3YL1 / Fold change vs veh, SH3YL1 / RFU, ZEB2 / Fold change vs veh, ZEB2 / RFU, NRIP1 / Fold change vs veh, NRIP1 / RFU, PTTG1IP / Fold change vs veh, PTTG1IP / RFU, CAPN2 / Fold change vs veh, CAPN2 / RFU, MED14 / Fold change vs veh, MED14 / RFU, SNORA58 / Fold change vs veh, SNORA58 / RFU, C1orf63 / Fold change vs veh, C1orf63 / RFU, LRRFIP1 / Fold change vs veh, LRRFIP1 / RFU, NDUFAF7 / Fold change vs veh, NDUFAF7 / RFU, SLC12A2 / Fold change vs veh, SLC12A2 / RFU, IBTK / Fold change vs veh, IBTK / RFU, ESF1 / Fold change vs veh, ESF1 / Fold change vs veh, TMEM50B / RFU, TAOK1 / Fold change vs veh, TAOK1 / RFU, ACBD3 / Fold change vs veh, ACBD3 / RFU, TMA16 / Fold change vs veh, TMA16 / RFU, RWDD3 / Fold change vs veh, RWDD3 / RFU, BCAT1 / Fold change vs veh, BCAT1 / RFU, EDEM3 / Fold change vs veh, EDEM3 / RFU, TMEM33 / Fold change vs veh, TMEM33 / RFU, WDR75 / Fold change vs veh, WDR75 / RFU, AHCTF1 / Fold change vs veh, AHCTF1 / RFU, TFRC / Fold change vs veh, TFRC / RFU, ZDHHC17 / Fold change vs veh, ZDHHC17 / RFU, NOM1 / Fold change vs veh, NOM1 / RFU, ARL8B / Fold change vs veh, ARL8B / RFU, ZBTB11 / Fold change vs veh, ZBTB11 / RFU, TAMM41 / Fold change vs veh, TAMM41 / RFU, KIAA1704 /// LOC100996395 / Fold change vs veh, KIAA1704 /// LOC100996395 / RFU, ING1 / Fold change vs veh, ING1 / RFU, TRMT61B / Fold change vs veh, TRMT61B / RFU, FUBP3 / Fold change vs veh, FUBP3 / RFU, TP53 / Fold change vs veh, TP53 / RFU, TNKS2 / Fold change vs veh, TNKS2 / RFU, ZFP14 / Fold change vs veh, ZFP14 / RFU, ACTR2 / Fold change vs veh, ACTR2 / RFU, PPP3R1 / Fold change vs veh, PPP3R1 / RFU, PIK3R1 / Fold change vs veh, PIK3R1 / RFU, HNRNPA1 / Fold change vs veh, HNRNPA1 / RFU, RNF170 / Fold change vs veh, RNF170 / RFU, ZNF28 / Fold change vs veh, ZNF28 / RFU, RNGTT / Fold change vs veh, RNGTT / RFU, OGT / Fold change vs veh, OGT / RFU, BRD1 / Fold change vs veh, BRD1 / RFU, MARS / Fold change vs veh, MARS / RFU, ZNF655 / Fold change vs veh, ZNF655 / RFU, FAHD1 / Fold change vs veh, FAHD1 / RFU, BDP1 / Fold change vs veh, BDP1 / RFU, LRRCC1 / Fold change vs veh, LRRCC1 / RFU, ARID1A / Fold change vs veh, ARID1A / RFU, ZNF146 / Fold change vs veh, ZNF146 / RFU, ZNF330 / Fold change vs veh, ZNF330 / RFU, GPN3 / Fold change vs veh, GPN3 / RFU, C9orf123 / Fold change vs veh, C9orf123 / RFU, N4BP2L2 / Fold change vs veh, N4BP2L2 / RFU, ARFIP1 / Fold change vs veh, ARFIP1 / RFU, FAM179B / Fold change vs veh, FAM179B / RFU, BCL10 / Fold change vs veh, BCL10 / RFU, UHRF1BP1L / Fold change vs veh, UHRF1BP1L / RFU, BET1 / Fold change vs veh, BET1 / RFU, CNOT2 / Fold change vs veh, CNOT2 / RFU, ZNF268 / Fold change vs veh, ZNF268 / Fold change vs veh, ZNF507 / RFU, DGCR2 / Fold change vs veh, DGCR2 / RFU, WDSUB1 / Fold change vs veh, WDSUB1 / Fold change vs veh, HSP90B1 /// MIR3652 / RFU, ADSS / Fold change vs veh, ADSS / RFU, GK / Fold change vs veh, GK / RFU, ZNF148 / Fold change vs veh, ZNF148 / RFU, TAF9 / Fold change vs veh, TAF9 / RFU, SLC1A5 / Fold change vs veh, SLC1A5 / RFU, SLMO2 / Fold change vs veh, SLMO2 / RFU, ABCC4 / Fold change vs veh, ABCC4 / RFU, LOC101060439 /// RAP1B / Fold change vs veh, LOC101060439 /// RAP1B / RFU, RFX7 / Fold change vs veh, RFX7 / RFU, GTPBP10 / Fold change vs veh, GTPBP10 / RFU, CNEP1R1 / Fold change vs veh, CNEP1R1 / RFU, BIVM-ERCC5 /// ERCC5 / Fold change vs veh, BIVM-ERCC5 /// ERCC5 / RFU, ILF3 / Fold change vs veh, ILF3 / RFU 11762660_at / Fold change /veh 11762660_at / RFU VCAN (11757783_s_at) / Fold change /veh VCAN (11757783_s_at) / RFU DDX43 (11728927_at) / Fold change /veh DDX43 (11728927_at) / RFU KRT8 (11758188_x_at) / Fold change /veh KRT8 (11758188_x_at) / RFU NKD1 (11759106_at) / Fold change /veh NKD1 (11759106_at) / RFU SRD5A1 (11742802_a_at) / Fold change /veh SRD5A1 (11742802_a_at) / RFU TPSAB1 /// TPSB2 (11721975_s_at) / Fold change /veh TPSAB1 /// TPSB2 (11721975_s_at) / RFU GSTM3 (11746129_a_at) / Fold change /veh GSTM3 (11746129_a_at) / RFU IL23R (11737362_x_at) / Fold change /veh IL23R (11737362_x_at) / RFU TMEM51 (11727254_a_at) / Fold change /veh TMEM51 (11727254_a_at) / RFU PIWIL2 (11732686_x_at) / Fold change /veh PIWIL2 (11732686_x_at) / RFU ORM1 (11744905_x_at) / Fold change /veh ORM1 (11744905_x_at) / RFU CCDC152 (11743942_at) / Fold change /veh CCDC152 (11743942_at) / RFU ECM1 (11717891_a_at) / Fold change /veh ECM1 (11717891_a_at) / RFU IL23R (11748794_a_at) / Fold change /veh IL23R (11748794_a_at) / RFU TNFAIP8L3 (11732012_x_at) / Fold change /veh TNFAIP8L3 (11732012_x_at) / RFU MBOAT4 (11741988_at) / Fold change /veh MBOAT4 (11741988_at) / RFU 11764193_at / Fold change /veh 11764193_at / RFU TMEM53 (11763286_at) / Fold change /veh TMEM53 (11763286_at) / RFU MAGEB2 (11727129_at) / Fold change /veh MAGEB2 (11727129_at) / RFU TMEM200A (11744735_a_at) / Fold change /veh TMEM200A (11744735_a_at) / RFU CCDC152 (11751479_a_at) / Fold change /veh CCDC152 (11751479_a_at) / RFU FAM211A (11726209_a_at) / Fold change /veh FAM211A (11726209_a_at) / RFU RGS16 (11746705_a_at) / Fold change /veh RGS16 (11746705_a_at) / RFU VCAN (11755009_s_at) / Fold change /veh VCAN (11755009_s_at) / RFU RHOB (11743442_s_at) / Fold change /veh RHOB (11743442_s_at) / RFU RGS16 (11720943_a_at) / Fold change /veh RGS16 (11720943_a_at) / RFU RGS16 (11720944_at) / Fold change /veh RGS16 (11720944_at) / RFU, VPS4B / Fold change vs veh, VPS4B / RFU, CREB1 / Fold change vs veh, CREB1 / RFU, DNAJC13 / Fold change vs veh, DNAJC13 / RFU, GNAQ / Fold change vs veh, GNAQ / RFU, CDK5R1 / Fold change vs veh, CDK5R1 / RFU, ZRANB3 / Fold change vs veh, ZRANB3 / RFU, CUL4A / Fold change vs veh, CUL4A / RFU, CCNY / Fold change vs veh, CCNY / RFU, UFL1 / Fold change vs veh, UFL1 / RFU, COG3 / Fold change vs veh, COG3 / RFU, DIAPH2 / Fold change vs veh, DIAPH2 / RFU, SKA2 / Fold change vs veh, SKA2 / RFU, AFF3 / Fold change vs veh, AFF3 / RFU, LMF1 / Fold change vs veh, LMF1 / RFU, IPO11 / Fold change vs veh, IPO11 / RFU, DFFB / Fold change vs veh, DFFB / RFU, FOXP1 / Fold change vs veh, FOXP1 / RFU, CARD8 / Fold change vs veh, CARD8 / RFU, STRN3 / Fold change vs veh, STRN3 / RFU, ADK / Fold change vs veh, ADK / RFU, RASSF2 / Fold change vs veh, RASSF2 / RFU, WIPF1 / Fold change vs veh, WIPF1 / RFU, LARP1B / Fold change vs veh, LARP1B / RFU, RASA1 / Fold change vs veh, RASA1 / RFU, RB1 / Fold change vs veh, RB1 / RFU, PPFIA1 / Fold change vs veh, PPFIA1 / RFU, MAT2A / Fold change vs veh, MAT2A / RFU, CCT5 / Fold change vs veh, CCT5 / RFU, WDR92 / Fold change vs veh, WDR92 / RFU, CUX1 / Fold change vs veh, CUX1 / RFU, TTC7A / Fold change vs veh, TTC7A / RFU, TMEM135 / Fold change vs veh, TMEM135 / RFU, DEPTOR / Fold change vs veh, DEPTOR / RFU, CPM / Fold change vs veh, CPM / RFU, DNAJB6 / Fold change vs veh, DNAJB6 / RFU, CACNA2D3 / Fold change vs veh, CACNA2D3 / RFU, DTX4 / Fold change vs veh, DTX4 / RFU, TFCP2 / Fold change vs veh, TFCP2 / RFU, GMCL1 /// GMCL1P1 / Fold change vs veh, GMCL1 /// GMCL1P1 / RFU, AEBP2 / Fold change vs veh, AEBP2 / RFU, SNHG1 /// SNORD22 /// SNORD25 /// SNORD26 /// SNORD27 /// SNORD28 /// SNORD29 /// SNORD31 / Fold change vs veh, SNHG1 /// SNORD22 /// SNORD25 /// SNORD26 /// SNORD27 /// SNORD28 /// SNORD29 /// SNORD31 / Fold change (Aza/veh), C12orf56 (ProbeSet 11735607_a_at) / Fold change (ACY-1035/veh), C12orf56 (ProbeSet 11735607_a_at) / Fold change (Aza/veh), FGFR1OP (ProbeSet 11751329_s_at) / Fold change (ACY-1035/veh), FGFR1OP (ProbeSet 11751329_s_at) / Fold change (Aza/veh), VPS36 (ProbeSet 11739960_a_at) / Fold change (ACY-1035/veh), VPS36 (ProbeSet 11739960_a_at) / RFU SYPL1 (11715823_x_at) / Fold change /veh SYPL1 (11715823_x_at) / RFU IGFBP7 (11715501_s_at) / Fold change /veh IGFBP7 (11715501_s_at) / RFU REEP3 (11722064_at) / Fold change /veh REEP3 (11722064_at) / RFU IGLL1 (11728026_x_at) / Fold change /veh IGLL1 (11728026_x_at): dose or concentration left out as unconfirmed
Conditions: ProbeSet 11758440_s_at; LIST B

## Nc1ncn([C@@H]2O[C@H](CO)[C@@H](O)[C@H]2O)c(=O)n1 [azacitidine]
  RFU, RFX7: 45.74 RFU
